# Experimental data published in PubChem BioAssay AID2060488 (Molecular Pharmacology Branch, DTP, NCI, 2025).
# System: 966289-007-R4-J1-PDC complex spheroid viability
# Assay: Anticancer human tumor 966289-007-R4-J1-PDC patient-derived pancreatic adenocarcinoma cell line growth inhibition [GQUAD]
# Conditions: for IC50: curve of first compound; for viability, T/C: stronger effect = lower value
# Procedure, shortened: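 Viability of tumor cells grown as complex spheroids with endothelial and stromal cells, exposed to drug combinations. Top concentration at or near clinical Cmax (else 10 microM), diluted in half-log increments.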
# [1] = second compound 0.0316 µM, first compound 0.0316 µM
# [2] = second compound 0.0316 µM, first compound 0.1 µM
# [3] = second compound 0.0316 µM, first compound 0.316 µM
# [4] = second compound 0.0316 µM, first compound 1 µM
# [5] = second compound 0.0316 µM, first compound 3.16 µM
# [6] = second compound 0.0316 µM, first compound 10 µM
# [7] = second compound 0.1 µM, first compound 0.0316 µM
# [8] = second compound 0.1 µM, first compound 0.1 µM
# [9] = second compound 0.1 µM, first compound 0.316 µM
# [10] = second compound 0.1 µM, first compound 1 µM
# [11] = second compound 0.1 µM, first compound 3.16 µM
# [12] = second compound 0.1 µM, first compound 10 µM
# [13] = second compound 0.316 µM, first compound 0.0316 µM
# [14] = second compound 0.316 µM, first compound 0.1 µM
# [15] = second compound 0.316 µM, first compound 0.316 µM
# [16] = second compound 0.316 µM, first compound 1 µM
# [17] = second compound 0.316 µM, first compound 3.16 µM
# [18] = second compound 0.316 µM, first compound 10 µM
# [19] = second compound 1 µM, first compound 0.0316 µM
# [20] = second compound 1 µM, first compound 0.1 µM
# [21] = second compound 1 µM, first compound 0.316 µM
# [22] = second compound 1 µM, first compound 1 µM
# [23] = second compound 1 µM, first compound 3.16 µM
# [24] = second compound 1 µM, first compound 10 µM
# [25] = second compound 3.16 µM, first compound 0.0316 µM
# [26] = second compound 3.16 µM, first compound 0.1 µM
# [27] = second compound 3.16 µM, first compound 0.316 µM
# [28] = second compound 3.16 µM, first compound 1 µM
# [29] = second compound 3.16 µM, first compound 3.16 µM
# [30] = second compound 3.16 µM, first compound 10 µM
# [31] = second compound 10 µM, first compound 0.0316 µM
# [32] = second compound 10 µM, first compound 0.1 µM
# [33] = second compound 10 µM, first compound 0.316 µM
# [34] = second compound 10 µM, first compound 1 µM
# [35] = second compound 10 µM, first compound 3.16 µM
# [36] = second compound 10 µM, first compound 10 µM
# 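Further: spheroids exposed to the agents for seven days before readout.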
# 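Wherever viability, T/C is given: percent viability relative to DMSO vehicle control wells taken as 100%.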
smiles,measurement,setting,value
O=C(NO)c1cnc(N2CCN(S(=O)(=O)c3ccc4ccccc4c3)CC2)nc1 + CN(C)c1ccc(Nc2c3ccc(NC(=O)CCN4CCCC4)cc3nc3cc(NC(=O)CCN4CCCC4)ccc23)cc1,IC50,second compound 0.0316 µM,363 nM
same,IC50,second compound 0.1 µM,431 nM
same,IC50,second compound 0.316 µM,343 nM
same,IC50,second compound 1 µM,264 nM
same,IC50,second compound 3.16 µM,279 nM
same,IC50,second compound 10 µM,191 nM
same,"viability, T/C",[1],112%
same,"viability, T/C",[2],107%
same,"viability, T/C",[3],55.2%
same,"viability, T/C",[4],9.1%
same,"viability, T/C",[5],1.51%
same,"viability, T/C",[6],0.76%
same,"viability, T/C",[7],105%
same,"viability, T/C",[8],106%
same,"viability, T/C",[9],64.2%
same,"viability, T/C",[10],10.4%
same,"viability, T/C",[11],1.4%
same,"viability, T/C",[12],0.24%
same,"viability, T/C",[13],106%
same,"viability, T/C",[14],108%
same,"viability, T/C",[15],52.9%
same,"viability, T/C",[16],7.46%
same,"viability, T/C",[17],1.19%
same,"viability, T/C",[18],0.23%
same,"viability, T/C",[19],100%
same,"viability, T/C",[20],108%
same,"viability, T/C",[21],39.9%
same,"viability, T/C",[22],8.91%
same,"viability, T/C",[23],1.33%
same,"viability, T/C",[24],0.27%
same,"viability, T/C",[25],97.1%
same,"viability, T/C",[26],107%
same,"viability, T/C",[27],43.6%
same,"viability, T/C",[28],5.36%
same,"viability, T/C",[29],0.77%
same,"viability, T/C",[30],0.21%
same,"viability, T/C",[31],101%
same,"viability, T/C",[32],106%
same,"viability, T/C",[33],7.93%
same,"viability, T/C",[34],1.01%
same,"viability, T/C",[35],0.44%
same,"viability, T/C",[36],0.14%
O=c1[nH]cc(F)c(=O)[nH]1 + CN(C)c1ccc(Nc2c3ccc(NC(=O)CCN4CCCC4)cc3nc3cc(NC(=O)CCN4CCCC4)ccc23)cc1,IC50,second compound 0.0316 µM,205 nM
same,IC50,second compound 0.1 µM,209 nM
same,IC50,second compound 0.316 µM,208 nM
same,IC50,second compound 1 µM,206 nM
same,IC50,second compound 3.16 µM,213 nM
same,IC50,second compound 10 µM,195 nM
same,"viability, T/C",[1],104%
same,"viability, T/C",[2],103%
same,"viability, T/C",[3],18.4%
same,"viability, T/C",[4],6.28%
same,"viability, T/C",[5],5.63%
same,"viability, T/C",[6],6.35%
same,"viability, T/C",[7],103%
same,"viability, T/C",[8],113%
same,"viability, T/C",[9],17.7%
same,"viability, T/C",[10],7.05%
same,"viability, T/C",[11],5.04%
same,"viability, T/C",[12],6.55%
same,"viability, T/C",[13],105%
same,"viability, T/C",[14],109%
same,"viability, T/C",[15],17.5%
same,"viability, T/C",[16],7.23%
same,"viability, T/C",[17],5.77%
same,"viability, T/C",[18],6.78%
same,"viability, T/C",[19],103%
same,"viability, T/C",[20],107%
same,"viability, T/C",[21],17.5%
same,"viability, T/C",[22],6.91%
same,"viability, T/C",[23],5.6%
same,"viability, T/C",[24],5.8%
same,"viability, T/C",[25],101%
same,"viability, T/C",[26],106%
same,"viability, T/C",[27],22.2%
same,"viability, T/C",[28],8.51%
same,"viability, T/C",[29],5.41%
same,"viability, T/C",[30],5.54%
same,"viability, T/C",[31],93.8%
same,"viability, T/C",[32],103%
same,"viability, T/C",[33],14.6%
same,"viability, T/C",[34],4.55%
same,"viability, T/C",[35],3.52%
same,"viability, T/C",[36],3.2%
